The values below come from patent US4410518A, “N-Phosphinoaminosulfinylcarbamate esters and their use as insecticides” (priority 1982, dated 1983).

Read-outs that look alike come from different tables or passages of the source.

Data set [1] is described as follows: mammalian toxicity in mice (oral). The following applies: mouse, in vivo, corn oil carrier, Swiss white mice. The protocol:
Mammalian toxicity was determined against Swiss white mice. The test compound was applied orally using corn oil as the carrier. Results are given as LD50 in mg of compound per kg body weight.
(§1) In that table the term "LD50 " represents the dose needed to kill 50% of the test animals. In interpreting the values in Table 1 below, the lower the value for LD50 for house flies, the greater the insecticidal potency or toxicity of that particular compound. On the other hand, the higher the value of LD50 for mice, the lower the mammalian toxicity or the greater is the mammalian safety of such compound.

Data set [2] relates to house flies, Musca domestica. The experiment in a line: insecticidal activity against house flies (topical, 24 h mortality). The format is in vivo. The conditions noted are these: for LD50: Musca domestica, read-out: House flies LD50. Here is the method:
Representative carbamate esters of the invention were tested for insecticidal activity against house flies, Musca domestica. Stock 1% concentrated solutions of each of the test compounds were made in acetone, and such solutions diluted with acetone to a concentration of 0.001-0.1%. House flies were treated topically on the notum by 1 μl of each of the diluted acetone solutions and percent mortality was counted 24 hours after application. The insects were held at a constant temperature of 60° F. Results are given in μg/g.
as §1

Data set [3] has as its system house flies, Musca domestica. The conditions noted are these: 'is known to have', no unit printed beside the value; cited from earlier work.
Where [4] appears, read: topical on the notum, 1 μl acetone solution, 24 hours after application.

Regarding `CN(C(=O)Oc1cccc2c1OC(C)(C)C2)[S+]([O-])N(C)P1(=S)OCC(C)(C)CO1` (centres unmarked) [Example 5, 2,3-Dihydro-2,2-dimethyl-7-benzofuranyl[[(5,5-dimethyl-2-thioxo-1,3,2-dioxaphosphorinan-2-yl)methylamino]sulfinyl]methylcarbamate], the LD50 in data set [1] stood at 70 mg/kg; in data set [2] (setting [4]), 3 mg/kg.
Turning to `CCOP(=S)(OCC)N(CC)[S+]([O-])N(C)C(=O)ON=C(SC)C(=O)N(C)C` (centres unmarked) [Example 22, methyl 2-(dimethylamino)-N-[[[[[(diethoxyphosphinothioyl)ethylamino]sulfinyl]methylamino]carbonyl]oxy]-2-oxoethanimidothioate], the median lethal dose (LD50) in data set [2] (setting [4]) turned out to be 18 mg/kg.
For `CNC(=O)Oc1cccc2c1OC(C)(C)C2` [carbofuran, 2,3-dihydro-2,2-dimethyl-7-benzofuranyl methylcarbamate], the “LD50 for house flies (carbofuran, known)” value in data set [3] was “about 6.5”.
Take `CCCCCCN([S+]([O-])N(C)C(=O)Oc1cccc2c1OC(C)(C)C2)P1(=S)OCC(C)(C)CO1` (centres unmarked) [Example 6, 2,3-dihydro-2,2-dimethyl-7-benzofuranyl[[(5,5-dimethyl-2-thioxo-1,3,2-dioxaphosphorinan-2-yl)hexylamino]sulfinyl]methylcarbamate]: the LD50 in data set [1] amounted to 105 mg/kg.
As for `CCOP(=S)(OCC)N(C)[S+]([O-])N(C)C(=O)ON=C(C)SC` (centres unmarked) [Example 11, methyl N-[[[[[(diethoxyphosphinothioyl)methylamino]sulfinyl]methylamino]carbonyl]oxy]ethanimidothioate], the LD50 in data set [1] was determined as 130 mg/kg; in data set [2] (setting [4]), 12 mg/kg.
Regarding `CCOP(=S)(OCC)N(C1CCCC1)[S+]([O-])N(C)C(=O)ON=C(C)SC` (centres unmarked) [Example 16, methyl N-[[[[[(diethoxyphosphinothioyl)cyclopentylamino]sulfinyl]methylamino]carbonyl]oxy]ethanimidothioate], the LD50 in data set [2] (setting [4]) is 12 mg/kg.
For the molecule `CCCCCCN([S+]([O-])N(C)C(=O)ON=C(C)SC)P(=S)(OCC)OCC` (centres unmarked) [Example 17, Methyl N-[[[[[(diethoxyphosphinothioyl)hexylamino]sulfinyl]methylamino]carbonyl]oxy]ethanimidothioate], the LD50 in data set [1] came out at 250 mg/kg; in data set [2] (setting [4]), 23 mg/kg.
Consider `CSC(C)=NOC(=O)N(C)[S+]([O-])N(C)P1(=S)OCC(C)(C)CO1` (centres unmarked) [Example 19, methyl N-[[[[[(5,5-dimethyl-2-thioxo-1,3,2-dioxaphosphorinan-2-yl)(methyl)amino]sulfinyl]methylamino]carbonyl]oxy]ethanimidothioate], for which the LD50 in data set [1] is 200 mg/kg; in data set [2] (setting [4]) it was 58 mg/kg.
On to `CSC(=NOC(=O)N(C)[S+]([O-])N(C)P1(=S)OCC(C)(C)CO1)C(=O)N(C)C` (centres unmarked) [Example 25, methyl 2-(dimethylamino)-N-[[[[[(5,5-dimethyl-2-thioxo-1,3,2-dioxaphosphorinan-2-yl)(methyl)amino]sulfinyl]methylamino]carbonyl]oxy]-2-oxoethanimidothioate], for which the LD50 in data set [1] stood at 25 mg/kg; in data set [2] (setting [4]), 150 mg/kg.
In data set [1], `CCCCCCCCCCCCN([S+]([O-])N(C)C(=O)Oc1cccc2c1OC(C)(C)C2)P(=S)(OCC)OCC` (centres unmarked) [Example 4, 2,3-dihydro-2,2-dimethyl-7-benzofuranyl[[(diethoxyphosphinothioyl)dodecylamino]sulfinyl]methylcarbamate] showed an LD50 of more than 1000 mg/kg.
As to `CCCN([S+]([O-])N(C)C(=O)Oc1cccc2c1OC(C)(C)C2)P(=O)(OCC)OCC` (centres unmarked) [Example 8, 2,3-dihydro-2,2-dimethyl-7-benzofuranyl[[(diethoxyphosphinyl)propylamino]sulfinyl]methylcarbamate], the LD50 in data set [1] worked out at 100 mg/kg.
On to `CCOP(=S)(OCC)N(C)[S+]([O-])N(C)C(=O)Oc1cccc2c1OC(C)(C)C2` (centres unmarked) [Example 1, 2,3-dihydro-2,2-dimethyl-7-benzofuranyl[[(diethoxyphosphinothioyl)methylamino]sulfinyl]methylcarbamate], for which the LD50 in data set [1] was 65 mg/kg; in data set [2] (setting [4]), 14 mg/kg.
The molecule `CCCCCCN([S+]([O-])N(C)C(=O)Oc1cccc2c1OC(C)(C)C2)P(=S)(OCC)OCC` (centres unmarked) [Example 3, 2,3-dihydro-2,2-dimethyl-7-benzofuranyl[[(diethoxyphosphinothioyl)hexylamino]sulfinyl]methylcarbamate] had an LD50 in data set [1] of 140 mg/kg. Also, in data set [2] (setting [4]), the “House flies LD50” value was 19 µg/g.
`COP(=S)(OC)N(C)[S+]([O-])N(C)C(=O)ON=C(C)SC` (centres unmarked) [Example 9, methyl N-[[[[[(dimethoxyphosphinothioyl)methylamino]sulfinyl]methylamino]carbonyl]oxy]ethanimidothioate]: the LD50 stood at 120 mg/kg in data set [1] and 24 mg/kg in data set [2] (setting [4]).
In the case of `CCOP(=S)(OCC)N(C1CCCCC1)[S+]([O-])N(C)C(=O)ON=C(C)SC` (centres unmarked) [Example 18, methyl N-[[[[[(diethoxyphosphinothioyl)cyclohexylamino]sulfinyl]methylamino]carbonyl]oxy]ethanimidothioate], the LD50 in data set [2] (setting [4]) was 18 mg/kg.
With `CCN([S+]([O-])N(C)C(=O)ON=C(C)SC)P1(=S)OCC(C)(C)CO1` (centres unmarked) [Example 20, methyl N-[[[[[(5,5-dimethyl-2-thioxo-1,3,2-dioxaphosphorinan-2-yl)(ethyl)amino]sulfinyl]methylamino]carbonyl]oxy]ethanimidothioate], the LD50 in data set [2] (setting [4]) amounted to 120 mg/kg.
Consider `CCOP(=S)(OCC)N(C(C)C)[S+]([O-])N(C)C(=O)ON=C(SC)C(=O)N(C)C` (centres unmarked) [Example 23, methyl 2-(dimethylamino)-N-[[[[[(diethoxyphosphinothioyl)isopropylamino]sulfinyl]methylamino]carbonyl]oxy]-2-oxoethanimidothioate], for which the LD50 in data set [1] turned out to be 22 mg/kg; in data set [2] (setting [4]) it was 10 mg/kg.
In the case of `CCOP(=S)(OCC)N(C(C)CC)[S+]([O-])N(C)C(=O)ON=C(C)SC` (centres unmarked) [Example 15, methyl N-[[[[[(diethoxyphosphinothioyl)sec-butylamino]sulfinyl]methylamino]carbonyl]oxy]ethanimidothioate], in data set [2] (setting [4]), the LD50 is 10 mg/kg.
Still for that read-out and setting: the value for `CCOP(=S)(OCC)N(CC)[S+]([O-])N(C)C(=O)ON=C(C)SC` (centres unmarked) [Example 12, methyl N-[[[[[(diethoxyphosphinothioyl)ethylamino]sulfinyl]methylamino]carbonyl]oxy]ethanimidothioate] was 13 mg/kg.
As for `CCOP(=S)(OCC)N(C)[S+]([O-])N(C)C(=O)ON=C(SC)C(=O)N(C)C` (centres unmarked) [Example 21, methyl 2-(dimethylamino)-N-[[[[[(diethoxyphosphinothioyl)methylamino]sulfinyl]methylamino]carbonyl]oxy]-2-oxoethanimidothioate], the LD50 is 23 mg/kg in data set [1] and 15 mg/kg in data set [2] (setting [4]).
Take `CCOP(=S)(OCC)N(C(C)C)[S+]([O-])N(C)C(=O)ON=C(C)SC` (centres unmarked) [Example 14, methyl N-[[[[[(diethoxyphosphinothioyl)isopropylamino]sulfinyl]methylamino]carbonyl]oxy]ethanimidothioate]: the LD50 in data set [2] (setting [4]) was found to be 11 mg/kg.
Turning to `CCOP(=O)(OCC)N(C)[S+]([O-])N(C)C(=O)Oc1cccc2c1OC(C)(C)C2` (centres unmarked) [Example 7, 2,3-dihydro-2,2-dimethyl-7-benzofuranyl[[(diethoxyphosphinyl)methylamino]sulfinyl]methylcarbamate], the LD50 in data set [2] (topical, 24 h) was determined as 19 mg/kg.
For the molecule `CCCN([S+]([O-])N(C)C(=O)ON=C(C)SC)P(=S)(OCC)OCC` (centres unmarked) [Example 13, methyl N-[[[[[(diethoxyphosphinothioyl)propylamino]sulfinyl]methylamino]carbonyl]oxy]ethanimidothioate], the results for the LD50 in data set [1] and in data set [2] (setting [4]) were 120 mg/kg and 8 mg/kg, respectively.
In the case of `CCCN([S+]([O-])N(C)C(=O)Oc1cccc2c1OC(C)(C)C2)P(=S)(OCC)OCC` (centres unmarked) [Example 2, 2,3-dihydro-2,2-dimethyl-7-benzofuranyl[[(diethoxyphosphinothioyl)propylamino]sulfinyl]methylcarbamate], the LD50 is 60 mg/kg in data set [1] and 16 mg/kg in data set [2] (setting [4]).
For `CCN([S+]([O-])N(C)C(=O)ON=C(C)SC)P(=S)(OC)OC` (centres unmarked) [Example 10, methyl N-[[[[[(dimethoxyphosphinothioyl)ethylamino]sulfinyl]methylamino]carbonyl]oxy]ethanimidothioate], in data set [2] (setting [4]), the LD50 was 14 mg/kg.
As for `CCOP(=S)(OCC)N(C1CCCC1)[S+]([O-])N(C)C(=O)ON=C(SC)C(=O)N(C)C` (centres unmarked) [Example 24, Methyl 2-(dimethylamino)-N-[[[[[(diethoxyphosphinothioyl)cyclopentylamino]sulfinyl]methylamino]carbonyl]oxy]-2-oxoethanimidothioate], the LD50 in data set [2] (setting [4]) is 16 mg/kg.

For orientation: LD50 means the dose expected to kill half of the subjects tested.
